Source: patent publication US20250289812A1, “COMPOUND FOR TREATING THROMBOTIC DISEASES” (SHANGHAI INSTITUTE OF MATERIA MEDICA, CHINESE ACADEMY OF …, priority 2020, published 2025)

Assays:
[1] = system: platelets on solid phase fibrinogen; test: Effect of compound on platelet stretching on solid phase fibrinogen; assay type: cell-based; details: 1 h, washed platelets, incubated 60 min at 37° C., read-out: Concentration range for compounds that inhibit platelet stretching on fibrinogen
Protocol: 1. Experimental method: Firstly, 50 μl fibrinogen (0.1M, diluted with pH 8.3 sodium bicarbonate, 20 μg/ml) was added to 96-well plate, and coated overnight at 4° C. After being washed by PBS for 3 times in the morning, sealed with bovine serum albumin (20 mg/ml) at 37° C. for 60 min, then 100 μl of washed platelet suspension was taken, and added into compounds in each group to make the final concentration 250 μM, and incubated at 37° C. for 60 min. 50 μl of incubated platelets were added to 96-well plate, adhered in a temperature box at 37° C. for 60 min, unadhered platelets were removed by PBS washing for 3 times, and adhered platelets were stably fixed with 4% paraformaldehyde, and washed with PBS for 3 times. Then the platelet membrane was perforated with 0.5% Triton X-100, and then the platelet was stained with 0.5 μg/ml phalloidin-rhodamine for 60 min at 37° C. and washed 3 times (10 min each) with PBS.
2. Experimental results and conclusions: The concentration of different compounds on platelet stretching on fibrinogen was shown in Table 3, and the inhibitory effect of some compounds on platelet stretching was shown in FIG. 2.

[2] = molecular target: Src kinase SH3 domain protein (Homo sapiens (Human), UniProt P12931); test: Surface plasmon resonance (SPR) determination of dissociation constants with SH3 protein; assay type: binding; details: SH3 protein coupled to CM5 chip
Chain of Src kinase SH3 domain protein (P12931 whole entry, looked up, the tested form may be a part): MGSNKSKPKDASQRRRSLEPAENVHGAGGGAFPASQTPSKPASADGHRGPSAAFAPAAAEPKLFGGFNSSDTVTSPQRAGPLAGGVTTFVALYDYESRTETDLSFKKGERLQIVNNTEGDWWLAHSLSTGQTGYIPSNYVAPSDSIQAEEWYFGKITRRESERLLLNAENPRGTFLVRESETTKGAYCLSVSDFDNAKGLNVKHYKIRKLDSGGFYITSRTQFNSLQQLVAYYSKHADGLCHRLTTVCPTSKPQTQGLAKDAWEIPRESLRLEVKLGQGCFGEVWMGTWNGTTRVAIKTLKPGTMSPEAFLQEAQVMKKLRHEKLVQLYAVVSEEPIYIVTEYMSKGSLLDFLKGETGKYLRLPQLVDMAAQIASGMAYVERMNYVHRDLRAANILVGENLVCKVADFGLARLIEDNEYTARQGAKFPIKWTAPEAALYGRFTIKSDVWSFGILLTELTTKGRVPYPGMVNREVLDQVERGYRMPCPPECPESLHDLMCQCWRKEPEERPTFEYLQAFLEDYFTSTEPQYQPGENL
Protocol: 1. Experimental method: Surface plasmon resonance test was carried out on BIACORE T200 instrument (GE Company). Fresh purified grade Src kinase SH3 domain protein (concentration 2 mg/ml) was diluted to 0.1 mg/ml with 10 mM CH3COONa (pH 4.2) and then SH3 protein was coupled to the CM5 chip by standard amino coupling methods. The compounds of the invention were diluted in a gradient using a buffer solution (20 mM Tris-HCl, PH 8.0, 100 mM NaCl) for 60 seconds and dissociated for 120 seconds at a flow rate of […], respectively. The changes in response values over time were recorded and analyzed by the BIA Evaluation Software (GE Healthcare) program to obtain the dissociation constants KD for the different compounds with SH3 protein.
2. Experimental results and conclusions: The dissociation constants KD of different compounds and SH3 protein were described in Table 2, and the surface plasmon resonance (SPR) experimental results of some compounds were shown in FIG. 1.

Kd [2] [µM] | SMILES | minimal effective concentration [1] [µM]
10 to 100 | CCOC(=O)c1c(CNC(=N)N)sc2cc(-c3cccc4ccccc34)ccc12 [SYY-C108] | 100 to 250
< 1 | CCOC(=O)c1c(CNC(=N)N)n(C)c2cc(OC3CCCC3)c(-c3cccc4ccccc34)cc12 [SYY-C115] | 10 to 100
10 to 100 | CCOC(=O)c1c(CNC(=N)N)sc2cc(-c3cccc4ccccc34)c(C3CCCc4ccccc43)cc12 (centres unmarked) [SYY-C131] | 100 to 250
< 1 | CCOC(=O)c1c(CNC(=N)N)n(C)c2cc(C3=CCCC3)c(-c3cccc4ccccc34)cc12 [SYY-C116] | 10 to 100
< 1 | CCOC(=O)c1c(CNC(=N)N)sc2cc(-c3cccc4ccccc34)c(OC3CCCCC3)cc12 [SYY-C127] | 10 to 100
1 to 10 | CCOC(=O)c1c(CNC(=N)N)n(C)c2cc(-c3cc(Cl)cc4ccccc34)ccc12 [SYY-C090] | 100 to 250
1 to 10 | CCOC(=O)c1c(CNC(=N)N)sc2cc(-c3cccc4ccccc34)c(C3CCCC3)cc12 [SYY-C121] | 100 to 250
< 1 | CCOC(=O)c1c(CNC(=N)N)n(C)c2cc(-c3cccc4ccccc34)c(Cl)cc12 [SYY-C104] | 10 to 100
< 1 | CCOC(=O)c1c(CNC(=N)N)n(C)c2cc(-c3c4ccccc4cc4ccccc34)ccc12 [SYY-C078] | 10 to 100
< 1 | CCOC(=O)c1c(CNC(=N)N)n(C)c2cc(-c3cccc4cc(C)ccc34)ccc12 [SYY-C080] | 10 to 100
< 1 | CCOC(=O)c1c(CNC(=N)N)n(C)c2ccc(OC3CCCC3)nc12 [SYY-C007] | 10 to 100
10 to 100 | CCOC(=O)c1c(CNC(=N)N)sc2cc(-c3cccc4ccccc34)c(C3=CCCC3)cc12 [SYY-C123] | 100 to 250
< 1 | CCOC(=O)c1c(CNC(=N)N)sc2cc(-c3cccc4ccccc34)c(OC3CCCC3)cc12 [SYY-C126] | 10 to 100
< 1 | CCOC(=O)c1c(CNC(=N)N)n(C)c2cc(-c3cccc4ccccc34)c(C3CCCC3)cc12 [SYY-C113] | 10 to 100
< 1 | CCOC(=O)c1c(CNC(=N)N)n(C)c2cc(-c3cccc4c(C)cccc34)ccc12 [SYY-C081] | 10 to 100
< 1 | CCOC(=O)c1c(CNC(=N)N)n(C)c2ccc(C3=CCCc4ccccc43)cc12 [SYY-C071] | 10 to 100
< 1 | CCOC(=O)c1c(CNC(=N)N)n(C)c2cc(-c3cccc4c(F)cccc34)ccc12 [SYY-C089] | 10 to 100
< 1 | CCOC(=O)c1c(CNC(=N)N)n(C)c2ccc(-c3cccc4ccccc34)cc12 [SYY-C070] | 10 to 100
< 1 | CCOC(=O)c1c(CNC(=N)N)n(C)c2cc(-c3cccc4ccccc34)c(OC3CCCC3)cc12 [SYY-C110] | 10 to 100
< 1 | CCOC(=O)c1c(CNC(=N)N)n(C)c2cc(-c3cccc4ccncc34)ccc12 [SYY-C077] | 10 to 100

Second part, the compound before the results:

SMILES | Kd [2] [µM] | minimal effective concentration [1] [µM]
CCOC(=O)c1c(CNC(=N)N)n(C)c2cc(Br)ncc12 [SYY-C022] | 1 to 10 | 100 to 250
CCOC(=O)c1c(CSC(=N)N)n(-c2ccccc2)c2ccccc12 [SYY-C031] | < 1 | 10 to 100
CCOC(=O)c1c(CNC(=N)N)n(C)c2cc(C3CCCCCC3)ccc12 [SYY-C047] | < 1 | 10 to 100
CNC(=O)c1c(CNC(=N)N)n(C)c2cc(-c3cccc4ccccc34)ccc12 [SYY-C099] | < 1 | 10 to 100
CCOC(=O)c1c(CSC(=N)N)n(C)c2cc(C3CCCCCC3)ccc12 [SYY-C053] | < 1 | 10 to 100
CCOC(=O)c1c(CSC(=N)N)n(C)c2cc(C3CCCCC3)ccc12 [SYY-C050] | < 1 | 10 to 100
CCOC(=O)c1c(CNC(=N)N)n(C)c2cc(-c3ccnc4ccccc34)ccc12 [SYY-C066] | < 1 | 10 to 100
CCOC(=O)c1c(CSC(=N)N)n(C)c2cc(C3CC4CCC3C4)ccc12 (centres unmarked) [SYY-C063] | < 1 | 10 to 100
CCOC(=O)c1c(CNC(=N)N)n(C)c2cc(-c3cc(C)cc4ccccc34)ccc12 [SYY-C085] | < 1 | 10 to 100
CCOC(=O)c1c(CNC(=N)N)n(C)c2cc(Br)c(OC3CCCC3)nc12 [SYY-C008] | 10 to 100 | 100 to 250
CCOC(=O)c1c(CNC(=N)N)n(C)c2cccnc12 [SYY-C026] | 1 to 10 | 100 to 250
CCOC(=O)c1c(CNC(=N)N)n(C)c2ccccc12 [SYY-C016] | 10 to 100 | 10 to 100
CCOC(=O)c1c(CNC(=N)N)n(C)c2cc(C3=CCCC3)ccc12 [SYY-C024] | < 1 | 10 to 100
CCOC(=O)c1c(CNC(=N)N)n(C)c2ccc(C3=CCCC3)cc12 [SYY-C037] | 1 to 10 | 100 to 250
CCOC(=O)c1c(CNC(=N)N)n(C)c2ccc(Br)cc12 [SYY-C017] | < 1 | 10 to 100
CCOC(=O)c1c(CNC(=N)N)n(C)c2cc(-c3ccc(Cl)c4ccccc34)ccc12 [SYY-C083] | 1 to 10 | 100 to 250
CCOC(=O)c1c(CSC(=N)N)n(C)c2cc(Cc3ccccc3)ccc12 [SYY-C045] | < 1 | 10 to 100
CCOC(=O)c1c(CNC(=N)N)n(C)c2ccc(O)nc12 [SYY-C006] | < 1 | 10 to 100
COc1cnc2c(c1)c(C(N)=O)c(CNC(=N)N)n2C [SYY-C036] |  | 10 to 100
CCOC(=O)c1c(CNC(=N)N)n(C)c2ccc(-c3ccccc3)cc12 [SYY-C028] | < 1 | 10 to 100
CCOC(=O)c1c(CNC(=N)N)n(C)c2cc(C3CCCc4ccccc43)ccc12 (centres unmarked) [SYY-C057] | < 1 | 10 to 100
CCOC(=O)c1c(CNC(=N)N)n(C)c2cc(-c3cccc4ncccc34)ccc12 [SYY-C067] | < 1 | 10 to 100
CCOC(=O)c1c(CNC(=N)N)n(C)c2cc(-c3cccc4ccc(F)cc34)ccc12 [SYY-C097] | 10 to 100 | 10 to 100
CCOC(=O)c1c(CNC(=N)N)n(C)c2cc(C3CCC(F)(F)CC3)ccc12 [SYY-C060] | < 1 | 10 to 100
CCOC(=O)c1c(CSC(=N)N)n(C)c2cc(C3CCCc4ccccc43)ccc12 (centres unmarked) [SYY-C055] | < 1 | 10 to 100
CCOC(=O)c1c(CNC(=N)N)n(C)c2ccc(OC)nc12 [SYY-C001] | < 1 | 10 to 100
CCOC(=O)c1c(CNC(=N)N)n(C)c2cc(C3=CCCCC3)ccc12 [SYY-C048] | 10 to 100 | 10 to 100
CCOC(=O)c1c(CNC(=N)N)n(C)c2cc(C3CC4CCC3C4)ccc12 (centres unmarked) [SYY-C069] |  | 10 to 100
CCOC(=O)c1c(CNC(=N)N)n(C)c2cc(-c3cccc4ccc(F)cc34)ccc12 [SYY-C094] | < 1 | 
